Assay results as given in patent US20210138080A1, “CONJUGATES” (GLYKOS BIOMEDICAL OY, priority 2018, published 2021).
“Also recorded” adds a separate entry of the source. Where two headings read alike, the source gives them in different places.

Tests used:
egg embryos = assay: in vivo CAM trial: embryo viability (toxicity)
Procedure: (§1) The study was performed by Inovotion SAS (La Tronche, France). Fertilized chicken eggs were incubated at 37.5° C. with 50% relative humidity for 9 days (E9), when the chorioallantoic membrane (CAM) was dropped down by drilling a small hole through the eggshell into the air sac, and a 1 cm^2 window was cut in the eggshell above the CAM. The NCI-N87 cell line was cultivated in RPMI-1640 medium supplemented with 10% FBS and 1% penicillin/streptomycin. On day E9, cells were detached by trypsin, washed with complete medium and suspended in graft medium. An inoculum of 2 million cells was added onto the CAM of each egg. […] Living grafted eggs were randomized into groups and were then treated on day E10, E11.5, E13, E14.5 and E17 (five doses) by dropping 100 μl of vehicle (PBS) and compounds (alone or in combination) onto the tumor. On day 18 (E18) the upper portion of the CAM was removed, washed in PBS and then directly transferred in PFA (fixation for 48 h). The tumors were then carefully cut away from normal CAM tissue and weighed. Eggs were checked at each treatment time, or at least every two days, for viability during the study. At the end of the study, the number of dead embryos was counted and combined with the observation of eventual visible macroscopic abnormalities (observation done during the sample collection) to evaluate the toxicity.

[1] = tested on: NCI-N87 cancer cell line tumors; assay: in vivo trial, cancer cell xenografts on chicken egg chorioallantoic membrane (CAM): tumor weight; conditions: for Mean tumor size: five doses E10-E17, 1.5 mg/kg pembrolizumab, 1.8 mg/kg 33DFTG, weighed E18, PBS control 30.6
Procedure: as §1

Galectin-3 [2] = biological target: T1, Galectin-3 (Homo sapiens, UniProt P17931); conditions: SKOV-3 cells, 2 μM 33DFTG for 3 days; Galectin-3 10 μg/ml; control treatment 1940
T1 sequence (P17931 whole entry): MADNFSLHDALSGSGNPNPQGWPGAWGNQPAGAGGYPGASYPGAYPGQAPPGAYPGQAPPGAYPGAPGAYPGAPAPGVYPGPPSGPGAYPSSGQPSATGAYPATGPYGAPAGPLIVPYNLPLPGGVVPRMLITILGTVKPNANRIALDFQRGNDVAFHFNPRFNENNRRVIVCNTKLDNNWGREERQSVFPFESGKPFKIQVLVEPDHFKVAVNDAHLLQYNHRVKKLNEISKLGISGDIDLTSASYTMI
Procedure: (§2) After the incubation, cells were stained with Alexa Fluor 488-conjugated human recombinant Galectin-1, and Alexa Fluor 488-conjugated human recombinant Galectin-3 (both from Abcam, Cambridge, United Kingdom; and both at 10 μg/ml) for 45 minutes at +4° C. Cells were washed and stored on ice in the dark until analysed by FACSAriaII flow cytometer.

Galectin-1 [3] = biological target: T2, Galectin-1 (Homo sapiens, UniProt P09382); assay: Alexa Fluor 488-Galectin-1 binding to HSC-2 cells by FACS; assay type: cell-based
T2 construct: purchased Abcam, Cambridge, United Kingdom
T2 sequence (P09382 whole entry): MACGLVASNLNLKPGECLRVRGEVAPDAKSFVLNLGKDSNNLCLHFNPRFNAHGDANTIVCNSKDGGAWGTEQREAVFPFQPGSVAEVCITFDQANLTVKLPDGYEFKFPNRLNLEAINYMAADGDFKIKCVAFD
Procedure: as §2
(§3) In parallel, untreated cells were cultured in normal cell culture medium. For flow cytometry analysis, cells were detached with trypsin, washed, and stained with AlexaFluor488-conjugated Galectin-1 and Galectin-3 proteins as above. FACS was performed as above.

Galectin-3 [4] = biological target: T1, Galectin-3; conditions: HSC-2 cells, 2 μM 33DFTG for 2 days; control treatment 1247
Procedure: as §2, §3

Galectin-1 [5] = biological target: T2, Galectin-1; assay: Alexa Fluor 488-Galectin-1 binding to SKOV-3 cells by FACS; assay type: cell-based
Procedure: as §2

Compound | % alive (egg embryos; egg embryos at end of study, PBS control 81) | Mean tumor size [1] | tumor size / therapeutic efficacy compared to control group (in words) ([1]; repeated dose) | Mean fluorescence intensity, Galectin-3 (Galectin-3 [2]) | binding of Galectin-1 to the cells (in words) (Galectin-1 [3]; 2 μM 33DFTG) | Mean fluorescence intensity, Galectin-1 (Galectin-1 [3]; 2 μM 33DFTG for 2 days, control treatment 521) | % alive (egg embryos; chicken, in vivo, 8 days) | Mean fluorescence intensity, Galectin-3 (Galectin-3 [4]) | binding of Galectin-1 to the cells (in words) (Galectin-1 [5]; 2 μM 33DFTG) | Mean fluorescence intensity, Galectin-1 (Galectin-1 [5]; 2 μM 33DFTG for 3 days, Galectin-1 10 μg/ml, control treatment 439)
Pembrolizumab: pembrolizumab (Keytruda, Merck) | 73% | 33.5 mg | neither pembrolizumab alone or 33DFTG alone showed significant difference |  |  |  |  |  |  | 
OC[C@H]1O[C@@H](S[C@@H]2O[C@H](CO)[C@H](O)[C@H](n3cc(-c4cccc(F)c4)nn3)[C@H]2O)[C@H](O)[C@@H](n2cc(-c3cccc(F)c3)nn2)[C@H]1O [33DFTG, 3,3′-dideoxy-3,3′-bis-[4-(3-fluorophenyl)-1H-1,2,3-triazol-1-yl]-1,1′-sulfanediyl-di-β-D-galactopyranoside] |  | 35.8 mg |  | 165 | effective inhibition; also recorded: clearly decreased | 226 | 64% | 129 | effective inhibition; also recorded: clearly decreased | 186
